Laboratory results from US10533010B2, “Substituted indole Mcl-1 inhibitors” (Vanderbilt University, priority 2014, dated 2020).
Like-named read-outs stand apart in the source and are kept apart here.

Experiments:
[1] = target: recombinant Mcl-1 (residues 172-327) (Homo sapiens (Human), UniProt Q07820); assay: Fluorescence polarization anisotropy competition assay (FITC-Bak or FITC-Bim BH3 peptide) with Mcl-1; type: binding
[2] = target: Bcl-xL (residues 1-209, loop 45-86 deleted) (Homo sapiens (Human), UniProt Q07817, DEL45-86); assay: Fluorescence polarization anisotropy competition selectivity assay (FITC-Bak peptide) with Bcl-xL; type: binding; settings: Table 3; 4 nM Bcl-xL, 10 nM FITC-Bak
Procedure: (§1) Compound affinity was measured using a fluorescence polarization anisotropy competition assay. Anisotropy measurements were carried out in 384-well, black, flat-bottom plates (Greiner Bio-one, Monroe, N.C., USA). The assay was run using either a fluorescein isothiocyanate-labeled BH3 peptide derived from Bak (FITC-AHx-[…]-NH2) or a fluorescein isothiocyanate-labeled BH3 peptide derived from Bim (FITC-AHx-[…]-NH2) that were purchased from GenScript (Piscataway, N.J.) at >95% purity and used without further purification. 10 nM FITC-Bak peptide and 15 nM recombinant Mcl-1 (residues 172-327) were added to assay buffer (3 mM dithiothreitol, 50 mM NaCl, 20 mM Tris, pH 7.5). The Bim based assay was run with 1 nM FITC-Bim peptide and 1.5 nM recombinant Mcl-1 (residues 172-327) added to assay buffer (20 mM TRIS pH 7.5, 50 mM NaCl, 3 mM DTT, 0.01% CHAPS). For selectivity assays, 40 nM Bcl-2 (residues 1-207^A96T,G110R, Δ35-91, replaced with Bcl-xL35-50) or 4 nM Bcl-xL (residues 1-209, loop 45-86 deleted) were incubated with 10 nM FITC-Bak in assay buffer.
(§2) Compounds are diluted in DMSO in a 10-point, 3-fold serial dilution scheme. For the FITC-BAK assay 2.5 uL compound is added to 47.5 μL of assay buffer containing FITC-Bak and protein, for a final DMSO concentration of 5% and a top concentration of 20 μM. […] […]. The plate was mixed and incubated for 90 minutes at room temperature. Anisotropy is measured at excitation wavelength 480 nm and emission wavelength 535 nm using an EnVision Multi-label plate reader (PerkinElmer, Wellesley, Mass., USA) or a BioTek Cytation 3 (BioTek, Winooski, Vt., USA). […] IC50 is converted to a binding dissociation constant (Ki value) according to the formula of Wang Z. FEBS Lett (1996) 3, 245.

[3] = target: Bcl-2 (residues 1-207 A96T,G110R, Δ35-91, replaced with Bcl-xL35-50) (Homo sapiens, UniProt P10415, A37E/DEL42-87/G36T/INS34DVEEN/P40E/P88T/P90S/P91E/V35R/V89E); assay: Fluorescence polarization anisotropy competition selectivity assay (FITC-Bak peptide) with Bcl-2; type: binding; settings: Table 3; 40 nM Bcl-2, 10 nM FITC-Bak
Procedure: as §1, §2

[4] = tested on: H929; assay: Cellular viability (Cell TiterGlo) H929; type: cell-based; settings: Homo sapiens, NCI-H929; H929 cells, 72 hours, 10% FBS; read-out: IC50 on cellular proliferation, H929
Procedure: (§3) Human cancer cell lines ALMC-1, ALMC-2, K562, H929, and OPM-2 were cultured in media supplemented with 10% fetal bovine serum (FBS). To evaluate compound effect on cellular proliferation, cells were plated at 1,000 cells/well in 96-well tissue culture plates in a total volume of 90 μL medium supplemented with 10% FBS (Sigma, Saint Louis, Mo.). 24 hours later, 10 μL of compound (in a 2-fold serial dilution) is added to the cells for a top concentration of 50 μM and a final DMSO concentration <1%. After 72 hours, 50 μL of Cell TiterGlo (Promega, Madison, Wis., USA) reagent is added to each well and plates are incubated at room temperature, in the dark, for 30 minutes. Luminescence is measured on a BioTek Cytation 3. Luminescence values are imported into a template in XLFit (Guildford, Surrey, UK) that uses a four-parameter fit to generate an IC50 value for each compound dilution series on the plate.

[5] = tested on: K562; assay: Cellular viability (Cell TiterGlo) K562; type: cell-based; settings: Homo sapiens; K562 cells, 72 hours, 10% FBS; read-out: IC50 on cellular proliferation, K562
Procedure: as §3

[6] = tested on: ALMC-1; assay: Cellular viability (Cell TiterGlo) ALMC-1; type: cell-based; settings: Homo sapiens, ALMC1; ALMC-1 cells, 72 hours, 10% FBS; read-out: IC50 on cellular proliferation, ALMC-1
Procedure: as §3

[7] = tested on: ALMC-2; assay: Cellular viability (Cell TiterGlo) ALMC-2; type: cell-based; settings: Homo sapiens, ALMC2; ALMC-2 cells, 72 hours, 10% FBS; read-out: IC50 on cellular proliferation, ALMC-2
Procedure: as §3

[8] = tested on: OPM-2; assay: Cellular viability (Cell TiterGlo) OPM-2; type: cell-based; settings: Homo sapiens; OPM-2 cells, 72 hours, 10% FBS; read-out: IC50 on cellular proliferation, OPM-2
Procedure: as §3

[9] = tested on: H929; assay: Apoptosis assay (Caspase 3/7 Glo) H929; type: cell-based; settings: Homo sapiens, NCI-H929; H929 cells, 3 hours, 5% FBS; read-out: EC50 on cellular caspase 3/7 activation, H929
Procedure: Induction of apoptosis was measured by quantifying caspase 3/7 activity using the commercially available Caspase-Glo reagent (Promega, Madison, Wis., USA). This assay relies on the cleavage of a proluminescent substrate by activated caspases, which is then detected on the BioTek Cytation 3. 5000 cells in 90 μL of media (+5% FBS) are plated in each well of a white 96-well plate and incubated overnight at 37° C. in a tissue culture incubator. The following day, compound is diluted in a 10-pt, 2-fold serial dilution scheme for a final top concentration of 50 μM. 10 μL of compound is added directly to the cell assay plate for a final volume of 100 μL. Columns 11 and 12 are reserved for treatment with DMSO to serve as control wells. Plates are incubated for 3 hours. 100 μL of Caspase-Glo reagent is added to each well and plates are incubated at room temperature, in the dark, for 30 minutes. Luminescence is measured on the Cytation 3. Luminescence values are imported into a template in XLFit (Guildford, Surrey, UK) that uses a four-parameter fit to generate an IC50 value for each compound dilution series on the plate.

[10] = Table 2, Ki bins given in nM, FITC-Bak or FITC-Bim peptide competition, Ki converted from IC50, read-out: Ki for Inhibition of Mcl-1
[11] = Table 3, selectivity panel, read-out: Mcl-1 Ki

recombinant Mcl-1 (residues 172-327), sequence (Q07820 172-327): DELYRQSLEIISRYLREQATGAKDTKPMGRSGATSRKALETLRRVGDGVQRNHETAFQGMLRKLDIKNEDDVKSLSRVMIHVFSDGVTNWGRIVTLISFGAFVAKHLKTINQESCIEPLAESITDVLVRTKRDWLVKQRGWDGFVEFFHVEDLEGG
Bcl-xL (residues 1-209, loop 45-86 deleted), sequence (Q07817 other isoform, or with tags, fused parts or gaps del 45-86): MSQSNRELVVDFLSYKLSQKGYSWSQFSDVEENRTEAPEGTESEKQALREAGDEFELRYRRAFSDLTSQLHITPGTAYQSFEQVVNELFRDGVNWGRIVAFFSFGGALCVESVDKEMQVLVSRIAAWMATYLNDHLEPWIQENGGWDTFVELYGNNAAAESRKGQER

SMILES	Ki [1, 10]	Ki [1, 11]	Ki [2]	Ki [3]	IC50 [4]	IC50 [5]	IC50 [6]	IC50 [7]	IC50 [8]	EC50 [9]
Cc1cc(OCCCc2c(C(=O)N(C)c3cccc(C(=O)O)c3)n(C)c3c(-c4c(C)nn(C)c4C)c(Cl)ccc23)cc(C)c1Cl [I-189, 3-(6-chloro-3-(3-(4-chloro-3,5-dimethylphenoxy)propyl)-N,1-dimethyl-7-(1,3,5-trimethyl-1H-pyrazol-4-yl)-1H-indole-2-carboxamido)benzoic acid]	< 50 nM	< 7 nM	4.63 µM	1.37 µM	–	–	–	–	–	–
Cc1cc(C(=O)O)cc(N2CCCn3c(c(CCCOc4cc(C)c(Cl)c(C)c4)c4ccc(Cl)c(-c5c(C)nn(C)c5C)c43)C2=O)c1 [I-220, 3-(8-chloro-11-(3-(4-chloro-3,5-dimethylphenoxy)propyl)-1-oxo-7-(1,3,5-trimethyl-1H-pyrazol-4-yl)-4,5-dihydro-1H-[1,4]diazepino[1,2-a]indol-2(3H)-yl)-5-methylbenzoic acid]	< 50 nM	–	–	–	4.9 µM	14.8 µM	–	–	–	–
Cc1cc(OCCCc2c3n(c4c(-c5c(C)nn(C)c5C)c(Cl)ccc24)CCN(c2cccc(C(=O)O)c2)C3=O)cc(C)c1Cl [I-178, 3-(7-chloro-10-(3-(4-chloro-3,5-dimethylphenoxy)propyl)-1-oxo-6-(1,3,5-trimethyl-1H-pyrazol-4-yl)-3,4-dihydropyrazino[1,2-a]indol-2(1H)-yl)benzoic acid]	< 50 nM	–	–	–	8.7 µM	11.8 µM	6.1 µM	8.7 µM	11.7 µM	3.1 µM
Cc1cc(OCCCc2c(C(=O)NC[C@H]3CC[C@H](C(=O)O)CC3)[nH]c3c(-c4c(C)nn(C)c4C)cccc23)cc(C)c1Cl [I-320, (1R,4R)-4-((3-(3-(4-chloro-3,5-dimethylphenoxy)propyl)-7-(1,3,5-trimethyl-1H-pyrazol-4-yl)-1H-indole-2-carboxamido)methyl)cyclohexane-1-carboxylic acid]	< 50 nM	–	–	–	–	–	–	–	–	2.3 µM
Cc1cc(OCCCc2c(C(=O)Nc3ccc(C(=O)O)cc3)[nH]c3c(-c4c(C)nn(CCN5CCOCC5)c4C)c(Cl)ccc23)cc(C)c1Cl [I-190, 4-(6-chloro-3-(3-(4-chloro-3,5-dimethylphenoxy)propyl)-7-(3,5-dimethyl-1-(2-morpholinoethyl)-1H-pyrazol-4-yl)-1H-indole-2-carboxamido)benzoic acid]	[…]	[…]	45.6 µM	1.64 µM	–	–	–	–	–	–
Cc1cc(OCCCc2c3n(c4c(-c5c(C)nn(C)c5C)c(Cl)ccc24)CCCN(c2cccc(CC(=O)O)c2)C3=O)cc(C)c1Cl [I-236, 2-(3-(8-chloro-11-(3-(4-chloro-3,5-dimethylphenoxy)propyl)-1-oxo-7-(1,3,5-trimethyl-1H-pyrazol-4-yl)-4,5-dihydro-H-[1,4]diazepino[1,2-a]indol-2(3H)-yl)phenyl)acetic acid]	< 50 nM	–	–	–	7.3 µM	25 µM	6.9 µM	12.2 µM	7.2 µM	–
Cc1cc(OCCCc2c3n(c4c(-c5c(C)nn(C)c5C)cccc24)CCN(Cc2cccc(C(=O)O)c2)C3=O)cc(C)c1Cl [I-31, 3-((10-(3-(4-chloro-3,5-dimethylphenoxy)propyl)-1-oxo-6-(1,3,5-trimethyl-1H-pyrazol-4-yl)-3,4-dihydropyrazino[1,2-a]indol-2(1H)-yl)methyl)benzoic acid]	[…]	[…]	6.44 µM	2.2 µM	15 µM	40 µM	13.1 µM	33.9 µM	16.3 µM	–
